# Source: patent US20240208994A1, “PLASMA KALLIKREIN INHIBITORS” (Merck Sharp & Dohme LLC, priority 2021, published 2024)
# Key:
# human factor XIa = human factor XIa (Homo sapiens, UniProt P03951); assay: Factor XIa Assay; type: biochemical; details: human factor XIa 0.04 nM, 30 min pre-incubation at 25° C., substrate GPR-AFC, pH 7.4, 60 min incubation; read-out: FXIa IC50
# Procedure: (§1) The effectiveness of a compound of the present invention as an inhibitor of Coagulation factor XIa can be determined using a relevant purified serine protease, and an appropriate synthetic substrate. The rate of hydrolysis of the chromogenic or fluorogenic substrate by the relevant serine protease was measured both in the absence and presence of compounds of the present invention. Assays were conducted at rt or at 37° C. […] A decrease in the rate of fluorescence change in the presence of inhibitor is indicative of enzyme inhibition. Such methods are known to one skilled in the art. The results of this assay are expressed as the half-maximal inhibitory concentrations (IC50), or the inhibitory constant, Ki.
# Compounds were pre-incubated for 30 min at 25° C. with human (0.04 nM) factor XIa in 50 mM HEPES buffer with 150 mM sodium chloride, 5 mM calcium chloride, 0.1% PEG 8000, pH 7.4. factor XIa enzymatic activity was determined by addition of the substrate glycine-proline-arginine-7-amido-4-trifluoromethylcoumarin (GPR-AFC) and measurement of the fluorescence at 400/505 nm after a 60 min incubation at 25° C. The % inhibition for each data point was calculated from the data and analyzed using the log (inhibitor) vs. response four parameters equation to determine the half-maximal inhibitory concentrations (IC50). The IC50 were converted to equilibrium inhibitory constants (Ki) using the Cheng-Prusoff equation.
# Human plasma kallikrein = target: T1, Human plasma kallikrein (Homo sapiens, UniProt P03952); assay: Plasma Kallikrein Assay; type: biochemical; details: purified Human plasma kallikrein 0.5 nM, substrate Acetyl-K-P-R-AFC, HEPES pH 7.4, fluorescence 405 Ex/510 Em; read-out: PKal IC50
# T1 construct: yields a heavy chain (371 amino acids) and a light chain (248 amino acids); purchased Enzyme Research Laboratories
# Procedure: as §1, with “plasma kallikrein” for “Coagulation factor XIa”
# Plasma kallikrein determinations were made in 50 mM HEPES buffer at pH 7.4 containing 150 mM NaCl, 5 mM CaCl2), and 0.1% PEG 8000 (polyethylene glycol: Fisher Scientific). Determinations were made using purified Human plasma kallikrein at a final concentration of 0.5 nM (Enzyme Research Laboratories) and the synthetic substrate, Acetyl-K-P-R-AFC (Sigma #C6608) at a concentration of […].
# Activity assays were performed by diluting a stock solution of substrate at least tenfold to a final concentration ≤0.2 Km into a solution containing enzyme or enzyme equilibrated with inhibitor. Times required to achieve equilibration between enzyme and inhibitor were determined in control experiments. The reactions were performed under linear progress curve conditions and fluorescence increase measured at 405 Ex/510 Em nm. Values were converted to percent inhibition of the control reaction (after subtracting 100% Inhibition value). IC50 was determined by inflection point from a four parameter logistic curve fit. Ki was calculated using the Cheng Prusoff equation, Ki=IC50/(1+([S]/Km)).
# T1 sequence (P03952 391-638 limits assumed): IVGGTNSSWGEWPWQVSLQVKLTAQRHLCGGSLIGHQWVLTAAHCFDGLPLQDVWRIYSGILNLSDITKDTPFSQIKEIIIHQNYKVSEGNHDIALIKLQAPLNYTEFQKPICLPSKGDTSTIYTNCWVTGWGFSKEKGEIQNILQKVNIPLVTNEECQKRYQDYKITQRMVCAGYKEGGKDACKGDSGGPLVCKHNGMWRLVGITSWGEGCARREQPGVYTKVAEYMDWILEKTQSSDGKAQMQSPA
# T1 sequence (P03952 20-390 partner limits assumed): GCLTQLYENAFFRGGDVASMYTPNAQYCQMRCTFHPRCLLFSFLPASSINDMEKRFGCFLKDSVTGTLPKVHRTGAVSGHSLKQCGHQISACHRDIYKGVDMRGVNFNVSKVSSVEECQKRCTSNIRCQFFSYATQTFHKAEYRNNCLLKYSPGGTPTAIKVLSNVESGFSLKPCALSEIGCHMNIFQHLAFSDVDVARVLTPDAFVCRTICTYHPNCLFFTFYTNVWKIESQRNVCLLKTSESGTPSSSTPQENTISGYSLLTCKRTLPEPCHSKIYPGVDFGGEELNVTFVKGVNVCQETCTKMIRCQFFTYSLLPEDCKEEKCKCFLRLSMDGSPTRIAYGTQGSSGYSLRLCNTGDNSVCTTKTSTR
# human factor XIa, sequence (P03951 388-625 limits assumed): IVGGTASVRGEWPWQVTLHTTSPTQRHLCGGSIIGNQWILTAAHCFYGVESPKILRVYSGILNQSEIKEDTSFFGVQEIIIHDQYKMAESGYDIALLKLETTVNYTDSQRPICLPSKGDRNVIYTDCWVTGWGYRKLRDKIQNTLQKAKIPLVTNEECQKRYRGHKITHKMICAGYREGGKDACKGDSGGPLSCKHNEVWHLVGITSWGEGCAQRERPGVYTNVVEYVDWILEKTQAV
# human factor XIa, sequence (P03951 19-387 partner limits assumed): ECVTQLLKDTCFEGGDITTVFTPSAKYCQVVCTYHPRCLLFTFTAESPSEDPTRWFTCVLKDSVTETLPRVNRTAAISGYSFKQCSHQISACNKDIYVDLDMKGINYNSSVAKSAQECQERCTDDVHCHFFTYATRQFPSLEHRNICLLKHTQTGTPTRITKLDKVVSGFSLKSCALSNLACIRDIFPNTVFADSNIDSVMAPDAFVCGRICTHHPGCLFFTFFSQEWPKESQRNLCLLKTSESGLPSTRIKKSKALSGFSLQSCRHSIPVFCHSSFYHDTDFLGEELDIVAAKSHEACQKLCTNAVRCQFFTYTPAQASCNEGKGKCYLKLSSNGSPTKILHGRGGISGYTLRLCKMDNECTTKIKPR
SMILES,IC50 (human factor XIa) [nM],IC50 (Human plasma kallikrein) [nM]
"Nc1cc(-c2ccc(F)cc2)nn1CC(=O)N1CC[C@@]2(C1)OC(=O)Nc1ccc(Cl)c(F)c12 [Example 1, (R)-1′-(2-(5-Amino-3-(4-fluorophenyl)-1H-pyrazol-1-yl)acetyl)-6-chloro-5-fluorospiro[benzo[d][1,3]oxazine-4,3′-pyrrolidin]-2(1H)-one 2,2,2-trifluoroacetate]",513,9.9
"Nc1cc(-c2ccc3c(c2)OCO3)nn1CC(=O)N1CC[C@@]2(C1)OC(=O)Nc1ccc(Cl)c(F)c12 [Example 2, (R)-1′-(2-(5-Amino-3-(benzo[d][1,3]dioxol-5-y1)-1H-pyrazol-1-yl)acetyl)-6-chloro-5-fluorospiro[benzo[d][1,3]oxazine-4,3′-pyrrolidin]-2(1H)-one]",653,8
"CC1(c2cc(N)n(CC(=O)N3CC[C@@]4(C3)OC(=O)Nc3ccc(Cl)c(F)c34)n2)CC1 [Example 3, (R)-1′-(2-(5-Amino-3-(1-methylcyclopropyl)-1H-pyrazol-1-yl)acetyl)-6-chloro-5-fluorospiro[benzo[d][1,3]oxazine-4,3′-pyrrolidin]-2(1H)-one]",347,37.8
"Nc1cc(C2CCCC2)nn1CC(=O)N1CC[C@@]2(C1)OC(=O)Nc1ccc(Cl)c(F)c12 [Example 4, (R)-1′-(2-(5-Amino-3-cyclopenty1-1H-pyrazol-1-yl)acetyl)-6-chloro-5-fluorospiro[benzo[d][1,3]oxazine-4,3′-pyrrolidin]-2(1H)-one]",315,16.3
"Nc1cc(C2CCOCC2)nn1CC(=O)N1CC[C@@]2(C1)OC(=O)Nc1ccc(Cl)c(F)c12 [Example 5, (R)-1′-(2-(5-Amino-3-(tetrahydro-2H-pyran-4-y1)-1H-pyrazol-1-yl)acetyl)-6-chloro-5-fluorospiro[benzo[d][1,3]oxazine-4,3′-pyrrolidin]-2(1H)-one]",685,30.6
"COc1ccc(-c2cc(N)n(CC(=O)N3CC[C@@]4(C3)OC(=O)Nc3ccc(Cl)c(F)c34)n2)cc1 [Example 6, (R)-1′-(2-(5-Amino-3-(4-methoxyphenyl)-1H-pyrazol-1-yl)acetyl)-6-chloro-5-fluorospiro[benzo[d][1,3]oxazine-4,3′-pyrrolidin]-2(1H)-one]",904,10.1
"Nc1cc(-c2ccc(OC(F)(F)F)cc2)nn1CC(=O)N1CC[C@@]2(C1)OC(=O)Nc1ccc(Cl)c(F)c12 [Example 7, (R)-1′-(2-(5-Amino-3-(4-(trifluoromethoxy)phenyl)-1H-pyrazol-1-yl)acetyl)-6-chloro-5-fluorospiro[benzo[d][1,3]oxazine-4,3′-pyrrolidin]-2(1H)-one]",4140,49
"COc1cccc(-c2cc(N)n(CC(=O)N3CC[C@@]4(C3)OC(=O)Nc3ccc(Cl)c(F)c34)n2)c1 [Example 8, (R)-1′-(2-(5-Amino-3-(3-methoxyphenyl)-1H-pyrazol-1-yl)acetyl)-6-chloro-5-fluorospiro[benzo[d][1,3]oxazine-4,3′-pyrrolidin]-2(1H)-one]",679,11.8
"Nc1cc(-c2cccnc2)nn1CC(=O)N1CC[C@@]2(C1)OC(=O)Nc1ccc(Cl)c(F)c12 [Example 9, (R)-1′-(2-(5-Amino-3-(pyridin-3-yl)-1H-pyrazol-1-yl)acetyl)-6-chloro-5-fluorospiro[benzo[d][1,3]oxazine-4,3′-pyrrolidin]-2(1H)-one]",389,12.9
Nc1cc(C2CC2)nn1CC(=O)N1CC[C@@]2(C1)OC(=O)Nc1ccc(Cl)c(F)c12 [Example 10],506,27.4
"Nc1cc(C2CC(F)(F)C2)nn1CC(=O)N1CC[C@@]2(C1)OC(=O)Nc1ccc(Cl)c(F)c12 [Example 11, (R)-1′-(2-(5-Amino-3-(3,3-difluorocyclobutyl)-1H-pyrazol-1-yl)acetyl)-6-chloro-5-fluorospiro[benzo[d][1,3]oxazine-4,3′-pyrrolidin]-2(1H)-one]",672,32.3
"Nc1cc(-c2cccc(C(F)(F)F)c2)nn1CC(=O)N1CC[C@@]2(C1)OC(=O)Nc1ccc(Cl)c(F)c12 [Example 12, (R)-1′-(2-(5-Amino-3-(3-(trifluoromethyl)phenyl)-1H-pyrazol-1-yl)acetyl)-6-chloro-5-fluorospiro[benzo[d][1,3]oxazine-4,3′-pyrrolidin]-2(1H)-one]",2710,37.5
"Nc1c2c(nn1CC(=O)N1CC[C@@]3(C1)OC(=O)Nc1ccc(Cl)c(F)c13)CCC2 [Example 13, (R)-1′-(2-(3-Amino-5,6-dihydrocyclopenta[c]pyrazo1-2(4H)-yl)acetyl)-6-chloro-5-fluorospiro[benzo[d] [1,3]oxazine-4,3′-pyrrolidin]-2(1H)-one]",277,38.8
"Nc1c2c(nn1CC(=O)N1CC[C@@]3(C1)OC(=O)Nc1ccc(Cl)c(F)c13)-c1ccccc1C2 [Example 14, (R)-1′-(2-(3-Aminoindeno[1,2-c]pyrazol-2(4H)-y1)acetyl)-6-chloro-5-fluorospiro[benzo[d] [1,3]oxazine-4,3′-pyrrolidin]-2(1H)-one]",29,3.3
"CC1(C)CCc2c1nn(CC(=O)N1CC[C@@]3(C1)OC(=O)Nc1ccc(Cl)c(F)c13)c2N [Example 15, (R)-1′-(2-(3-Amino-6,6-dimethyl-5,6-dihydrocyclopenta[c]pyrazo1-2(4H)-yl)acetyl)-6-chloro-5-fluorospiro[benzo[d][1,3]oxazine-4,3′-pyrrolidin]-2(1H)-one]",100,40.6
"Nc1cc(-c2cccc(Cl)c2)nn1CC(=O)N1CCC[C@@]2(C1)OC(=O)Nc1ccc(Cl)c(F)c12 [Example 16, (R)-1′-(2-(5-Amino-3-(3-chlorophenyl)-1H-pyrazol-1-yl)acetyl)-6-chloro-5-fluorospiro[benzo[d][1,3]oxazine-4,3′-piperidin]-2(1H)-one]",2820,20.4
"Nc1cc(-c2ccc(F)cc2)nn1CC(=O)N1CCC[C@@]2(C1)OC(=O)Nc1ccc(Cl)c(F)c12 [Example 17, (R)-1′-(2-(5-Amino-3-(4-fluorophenyl)-1H-pyrazol-1-yl)acetyl)-6-chloro-5-fluorospiro[benzo[d][1,3]oxazine-4,3′-piperidin]-2(1H)-one]",2550,21
"Nc1c2c(nn1CC(=O)N1CCC[C@@]3(C1)OC(=O)Nc1ccc(Cl)c(F)c13)-c1ccccc1C2 [Example 18, (R)-1′-(2-(3-Aminoindeno[1,2-c]pyrazol-2(4H)-yl)acetyl)-6-chloro-5-fluorospiro[benzo[d][1,3]oxazine-4,3′-piperidin]-2(1H)-one]",88,2.4
"Nc1c(Cl)c(-c2ccc(F)cc2F)nn1CC(=O)N1CC[C@@]2(C1)OC(=O)Nc1ccc(Cl)c(F)c12 [Example 19, (R)-1′-(2-(5-Amino-4-chloro-3-(2,4-difluorophenyl)-1H-pyrazol-1-yl)acetyl)-6-chloro-5-fluorospiro[benzo[d][1.3]oxazine-4,3′-pyrrolidin]-2(1H)-one 2,2,2-trifluoroacetate]",134,30.3
"Nc1c(Cl)c(-c2ccccc2)nn1CC(=O)N1CC[C@@]2(C1)OC(=O)Nc1ccc(Cl)c(F)c12 [Example 20, (R)-1′-(2-(5-Amino-4-chloro-3-phenyl-1H-pyrazol-1-yl)acetyl)-6-chloro-5-fluorospiro[benzo[d][1,3]oxazine-4,3′-pyrrolidin]-2(1H)-one]",214,42.3
"Nc1c(Cl)c(-c2ccc(F)cc2F)nn1CC(=O)N1CCC[C@@]2(C1)OC(=O)Nc1ccc(Cl)c(F)c12 [Example 21, (R)-1′-(2-(5-Amino-4-chloro-3-(2,4-difluorophenyl)-1H-pyrazol-1-yl)acetyl)-6-chloro-5-fluorospiro[benzo[d][1,3]oxazine-4,3′-piperidin]-2(1H)-one]",325,19
